# Patent US10745395B2, “Compounds for their use as drugs for the treatment and/or the prevention of infection(s) caused by biofilm-forming bacteria” (CENTRE NATIONAL DE LA RECHERCHE SCIENTIFIQUE, priority 2014, dated 2020)
# What was measured:
# Format in all cases: cell-based, Pseudomonas aeruginosa
# [1] = test system: P. aeruginosa strain PAR 20 biofilm; experiment: Early biofilm model, Congo red staining; conditions: for absorbance (Congo red, biofilm formation): early biofilm, 0.9 mM, 492 nm
# Method: (§1) P. aeruginosa biofilm was set-up in sterile plastic 96-well plates with adherent surface (Greiner Bio-One, USA).
# (§2) Twenty microliter quantities of the bacterial stock suspensions, prepared as described above, were added to each well followed with 180 μl of sterile TSB. Final concentration of the bacteria was 1×10^8 CFU/ml.
# (§3) The plates were centrifuged for 10 minutes at 2000 rpm to sediment bacteria on the bottom of each well and then incubated for 72 hours (37° C., aerobic conditions).
# (§4) Biofilm quantity was determined using Congo red dye according to a modified procedure described by Allison et al. (Allison G C, Sutherland I W. A staining technique for bacteria and its correlation to extracellular carbohydrate production. J Microbiol Meth 2, 93-99 (1984)).
# (§5) Briefly, at different time points (0, 6, 18, 24, 48 and 72 hours), the culture medium was gently removed from wells by using the pipette and immediately 200 μl of 0.1% Congo red solution was added. The plates were left for 30 minutes at room temperature and then 10 minutes before the end of staining, the plate was centrifuged for 10 minutes at 2000 rpm and then washed twice with buffered saline to remove unbound dye. Absorbance was measured at λ=492 nm wavelength using spectrophotometer (Awarness Technology Inc., Palm City, Fla., USA). All measurements were performed in triplicates and mean values±SD are given.
# (§6) Early biofilm model: formation of early biofilm under influence of the tested substances was observed by filling wells of a 96-well plate with 20 μl of P. aeruginosa suspension and 180 μl of TSB, as described above. Tested iminosugars (compounds 1, 2, 3 and 4) were added immediately after setting-up the bacteria at a final concentration of 0.9 mM. Then, the plate was gently mixed and incubated for 48 hours at 37° C.
# (§7) Biofilm formation and the number of viable bacteria were checked in parallel in the following time intervals: 0, 0.5, 8, 24, 48 hours, in accordance with the procedure described above. Biofilm thickness was estimated by staining it with Cango Red and measuring optical density while number of viable bacteria was performed using the standard viable count method. (Allison G C, Sutherland I W. A staining technique for bacteria and its correlation to extracellular carbohydrate production. J Microbiol Meth 2, 93-99 (1984)).
# (§8) P. aeruginosa suspension cultures in TSB broth alone were used as a control.
# [2] = test system: P. aeruginosa strain PAR 5 biofilm; experiment: Early biofilm model, Congo red staining; conditions: for absorbance (Congo red, biofilm formation): 0.9 mM, 492 nm
# Method: as §1, §2, §3, §4, §5, §6, §7, §8
# [3] = test system: P. aeruginosa strain PAR 50 biofilm; experiment: Early biofilm model, Congo red staining; conditions: for absorbance (Congo red, biofilm formation): early biofilm, 0.9 mM, 492 nm
# Method: as §1, §2, §3, §4, §5, §6, §7, §8
# [4] = test system: P. aeruginosa strain PAR 20 biofilm; experiment: Mature biofilm model, Congo red staining; conditions: for absorbance (Congo red, biofilm development): mature biofilm, compound added 48 h after induction of biofilm
# Method: as §4, §5
# (§9) Mature biofilm model: the tested substances were added 48 hours after adherence of bacteria to the wells in a 96-well plate. The growth conditions of P. aeruginosa were exactly the same, as described above for the early biofilm model.
# (§10) After the addition of iminosugars (compounds 1, 2, 3 and 4), the biofilm formation and the number of viable bacteria were checked in the following time intervals: 48, 48.5, 56, 72, 96 hours.
# [5] = test system: P. aeruginosa strain PAR 5 biofilm; experiment: Mature biofilm model, Congo red staining; conditions: for absorbance (Congo red, biofilm development): mature biofilm, compound added 48 h after induction of biofilm
# Method: as §4, §5, §9, §10
# [6] = test system: P. aeruginosa strain PAR 50 biofilm; experiment: Mature biofilm model, Congo red staining; conditions: for absorbance (Congo red, biofilm development): mature biofilm, compound added 48 h after induction of biofilm
# Method: as §4, §5, §9, §10
# [7] = test system: P. aeruginosa strain PAR 20; experiment: Number of viable bacteria in early and mature biofilm (viable count)
# Method: as §7, §10
# (§11) Numbers of viable bacteria contained in the early and mature biofilm were estimated on separate plates with wells filled with tested P. aeruginosa strains as described above (PAR 5, PAR 20, PAR 50).
# (§12) At the same time intervals, biofilm content in each well was removed and mixed by multiple pippeting and transferred to sterile tubes. Then decimal dilutions of the bacterial suspension were made in TSB broth, plated on McConkey Agar (Oxoid), and incubated at 37° C. for 24 hours.
# (§13) Numbers of colonies grown on platter were counted and total numbers of the viable bacteria calculated as colony forming units (CFU) per ml.
# (§14) The results depict logs of CFU/ml for three P. aeruginosa strains: PAR 5, PAR 20 and PAR 50 measured at different time intervals (0 hours, 8 hours, 24 hours, 48 hours, 56 hours, 72 hours and 96 hours). The detection limit is 100 CFU/ml.
# [8] = test system: P. aeruginosa strain PAR 50; experiment: as above
# Method: as §7, §10, §11, §12, §13, §14
# [9] = test system: P. aeruginosa strain PAR 5; experiment: as above
# Method: as §7, §10, §11, §12, §13, §14
# [10] = test system: P. aeruginosa strain PAR 5 biofilm; experiment: Reduction of biofilm growth (percent vs culture control)
# Excerpt: FIG. 4A represents the effect of the tested compounds (1, 2, 3 and 4) on exopolysaccharide biosynthesis in the early stages and mature P. aeruginosa biofilm formation, strain PAR 5. The abscissa represents the time (in hours) in order to differentiate early biofilm and mature biofilm, and the ordinate represents the percentage of the biofilm reduction.
# as §6, §9
# (§15) The effect of the tested compounds (1, 2, 3 and 4) on the reduction of biofilm growth has also been studied on the three P. aeruginosa strains PAR 5, PAR 20, PAR 50.
# (§16) (Percent decrease in biofilm thickness was obtained as a mean value from 3 consecutive measurements of the Congo Red stained biofilm using spectrophotometer after addition of the tested iminosugars in comparison to control regarded as 100%).
# [11] = test system: P. aeruginosa strain PAR 20 biofilm; experiment: as above
# Excerpt: FIG. 4B represents the effect of the tested compounds (1, 2, 3 and 4) on exopolysaccharide biosynthesis in the early stages and mature P. aeruginosa biofilm formation, strain PAR 20. The abscissa represents the time (in hours) in order to differentiate early biofilm and mature biofilm, and the ordinate represents the percentage of the biofilm reduction.
# as §6, §9, §15, §16
# [12] = test system: P. aeruginosa strain PAR 50 biofilm; experiment: as above
# Excerpt: FIG. 4C represents the effect of the tested compounds (1, 2, 3 and 4) on exopolysaccharide biosynthesis in the early stages and mature P. aeruginosa biofilm formation, strain PAR 50. The abscissa represents the time (in hours) in order to differentiate early biofilm and mature biofilm, and the ordinate represents the percentage of the biofilm reduction.
# as §6, §9, §15, §16
# [13] = in comparison with culture control
structure (smiles),measurement,setting,value
"CCC[C@H]1N[C@@H](CO)[C@H](O)[C@H]1O [Compound 4, β-1-C-propyl-1,4-dideoxy-1,4-imino-L-arabinitol]","absorbance (Congo red, biofilm formation)",[1]; 8 hours,about 0.6 a.u.
same,"absorbance (Congo red, biofilm formation)",[1]; 24 hours,about 1.0 a.u.
same,"absorbance (Congo red, biofilm formation)",[1]; 48 hours,about 0.75 a.u.
same,effect on formation of an early biofilm,[1]; [13],inhibit the formation of an early biofilm
same,"biofilm formation at 8 hours, 24 hours and 48 hours",[2]; early biofilm,no biofilm formation
same,"absorbance (Congo red, biofilm formation)","[2]; early biofilm, 8 hours",about 0.25 a.u.
same,"absorbance (Congo red, biofilm formation)","[2]; early biofilm, 24 hours",about 0.25 a.u.
same,"absorbance (Congo red, biofilm formation)","[2]; early biofilm, 48 hours",about 0.25 a.u.
same,effect on formation of an early biofilm,[2]; [13],inhibit the formation of an early biofilm
same,"absorbance (Congo red, biofilm formation)",[3]; 8 hours,about 0.8 a.u.
same,"absorbance (Congo red, biofilm formation)",[3]; 24 hours,about 1.4 a.u.
same,"absorbance (Congo red, biofilm formation)",[3]; 48 hours,about 0.9 a.u.
same,effect on formation of an early biofilm,[3]; [13],inhibit the formation of an early biofilm
same,influence on mature biofilm formation,[4],weak influence
same,"absorbance (Congo red, biofilm development)",[4]; 48 hours,about 0.5 a.u.
same,"absorbance (Congo red, biofilm development)",[4]; 56 hours,about 0.75 a.u.
same,"absorbance (Congo red, biofilm development)",[4]; 72 hours,about 1.25 a.u.
same,"absorbance (Congo red, biofilm development)",[4]; 96 hours,about 1.75 a.u.
same,influence on mature biofilm formation,[5],weak influence
same,"absorbance (Congo red, biofilm development)",[5]; 48 hours,about 0.5 a.u.
same,"absorbance (Congo red, biofilm development)",[5]; 56 hours,about 1.25 a.u.
same,"absorbance (Congo red, biofilm development)",[5]; 72 hours,about 1.25 a.u.
same,"absorbance (Congo red, biofilm development)",[5]; 96 hours,about 0.5 a.u.
same,influence on mature biofilm formation,[6],weak influence
same,"absorbance (Congo red, biofilm development)",[6]; 48 hours,about 1.4 a.u.
same,"absorbance (Congo red, biofilm development)",[6]; 56 hours,about 1.4 a.u.
same,"absorbance (Congo red, biofilm development)",[6]; 72 hours,about 1.5 a.u.
same,"absorbance (Congo red, biofilm development)",[6]; 96 hours,about 1.75 a.u.
same,number of viable P. aeruginosa,"[7]; early biofilm, 0 h",5 × 10^6 CFU/ml
same,number of viable P. aeruginosa,"[7]; early biofilm, 8 h",2 × 10^7 CFU/ml
same,number of viable P. aeruginosa,"[7]; early biofilm, 24 h",4 × 10^8 CFU/ml
same,number of viable P. aeruginosa,"[7]; early biofilm, 48 h",3 × 10^9 CFU/ml
same,number of viable P. aeruginosa,"[7]; mature biofilm, 56 h",9 × 10^8 CFU/ml
same,number of viable P. aeruginosa,"[7]; mature biofilm, 72 h",8 × 10^7 CFU/ml
same,number of viable P. aeruginosa,"[7]; mature biofilm, 96 h",4 × 10^8 CFU/ml
same,number of viable P. aeruginosa,"[8]; early biofilm, 0 h",1 × 10^7 CFU/ml
same,number of viable P. aeruginosa,"[8]; early biofilm, 8 h",2 × 10^8 CFU/ml
same,number of viable P. aeruginosa,"[8]; early biofilm, 24 h",7 × 10^8 CFU/ml
same,number of viable P. aeruginosa,"[8]; early biofilm, 48 h",1 × 10^8 CFU/ml
same,number of viable P. aeruginosa,"[8]; mature biofilm, 56 h",3 × 10^9 CFU/ml
same,number of viable P. aeruginosa,"[8]; mature biofilm, 72 h",9 × 10^9 CFU/ml
same,number of viable P. aeruginosa,"[8]; mature biofilm, 96 h",1 × 10^9 CFU/ml
same,number of viable P. aeruginosa,"[9]; early biofilm, 0 h",9 × 10^6 CFU/ml
same,number of viable P. aeruginosa,"[9]; early biofilm, 8 h",3 × 10^6 CFU/ml
same,number of viable P. aeruginosa,"[9]; early biofilm, 24 h",9 × 10^7 CFU/ml
same,number of viable P. aeruginosa,"[9]; early biofilm, 48 h",3 × 10^7 CFU/ml
same,number of viable P. aeruginosa,"[9]; mature biofilm, 56 h",4 × 10^8 CFU/ml
same,number of viable P. aeruginosa,"[9]; mature biofilm, 72 h",3 × 10^8 CFU/ml
same,number of viable P. aeruginosa,"[9]; mature biofilm, 96 h",2 × 10^9 CFU/ml
same,reduction of biofilm growth,[10]; 8 hours of incubation,about 90%
same,reduction of biofilm growth,[10]; 24 hours of incubation,about 90%
same,reduction of biofilm growth,[10]; 48 hours of incubation,about 25%
same,reduction of biofilm growth,[10]; 72 hours of incubation,about 10%
same,effect on biofilm growth,[10]; notably an early biofilm,can reduce the biofilm growth
same,reduction of biofilm growth,[11]; 8 hours of incubation,about 60%
same,reduction of biofilm growth,[11]; 24 hours of incubation,about 35%
same,reduction of biofilm growth,[11]; 48 hours of incubation,about 45%
same,reduction of biofilm growth,[11]; 72 hours of incubation,about 0%
same,effect on biofilm growth,[11]; notably an early biofilm,can reduce the biofilm growth
same,reduction of biofilm growth,[12]; 8 hours of incubation,about 60%
same,reduction of biofilm growth,[12]; 24 hours of incubation,about 35%
same,reduction of biofilm growth,[12]; 48 hours of incubation,about 45%
same,reduction of biofilm growth,[12]; 72 hours of incubation,about 30%
same,effect on biofilm growth,[12]; notably an early biofilm,can reduce the biofilm growth
